# According to patent US10532106B2 (priority 2014, dated 2020):
# Like-named read-outs stand apart in the source and are kept apart here. Numbered stars: 1 amine (or outer) side, 2 acyl side, 3 side chain; on linkers, the order of the positions; unused ones are H or OH. Bridge positions count the residues as written; N and C are the ends. Square brackets hold non-standard residues; d marks the D form. Peptide text beside a SMILES is read from it. Phe(4-Br) = N[C@@H](Cc1ccc(Br)cc1)C(=O)O; 1Nal = N[C@@H](Cc1cccc2ccccc12)C(=O)O; TBMB = c1c(C[*:1])cc(C[*:3])cc1C[*:2]; Cha = N[C@@H](CC1CCCCC1)C(=O)O; Phg = N[C@H](C(=O)O)c1ccccc1; Tle = CC(C)(C)[C@H](N)C(=O)O; Sar = CNCC(=O)O
# Biological target: T1, MT1-MMP hemopexin domain (Homo sapiens, UniProt P50281)
# T1 construct: residues Cys319-Gly511 from the human gene; His6 (N); made in house; host or cells: HEK293 (transient), pEXPR-IBA42 vector
# Assay: Competition assay using fluorescence polarisation
# Type: binding
# Conditions: for Kd: read-out: Kd
# Source text: Here, a pre-formed complex of PEX with the fluorescent PEX-binding tracer is titrated with free, non-fluoresceinated bicyclic peptide. Since all 17-69-based peptides are expected to bind at the same site, the titrant will displace the fluorescent tracer from PEX. Dissociation of the complex can be measured quantitatively, and the Kd of the competitor (titrant) to the target protein determined. The advantage of the competition method is that the affinities of non-fluoresceinated bicyclic peptides can be determined accurately and rapidly.
# Subsequently, the non-fluorescent competitor bicyclic peptide (usually just the bicycle core sequence) is titrated, such that it displaces the fluorescent tracer from the target protein. The displacement of the tracer is measured and associated with a drop in fluorescence polarisation. The drop in fluorescence polarisation is proportional to the fraction of target protein bound with the non-fluorescent titrant, and thus is a measure of the affinity of titrant to target protein.
# The raw data is fit to the analytical solution of the cubic equation that describes the equilibria between fluorescent tracer, titrant, and binding protein. The fit requires the value of the affinity of fluorescent tracer to the target protein, which can be determined separately by direct binding FP experiments (see previous section).
# [1] = Table 8, substitutions at position 4
smiles,measurement,setting,value
"CC[C@H](C)[C@@H]1NC(=O)[C@H](CC(=O)O)NC(=O)[C@H](Cc2ccc(O)cc2)NC(=O)[C@H](Cc2ccccc2)NC(=O)[C@H](CC(=O)O)NC(=O)[C@H](CCC(=O)O)NC(=O)[C@@H]2CSCc3cc(cc(c3)CSC[C@@H](C(=O)N[C@@H](C)C(N)=O)NC1=O)CSC[C@H](NC(=O)[C@H](C)N)C(=O)N[C@@H](Cc1ccc(O)cc1)C(=O)N[C@@H](CC(N)=O)C(=O)N[C@@H](CCC(=O)O)C(=O)N[C@@H](Cc1ccccc1)C(=O)NCC(=O)N2 [17-69-07-N001, A-(17-69-07)-A]",Kd,"Table 3, Competition, tracer A-(17-69-12)-A-Sar6-K(Fluorescein)",1.65 ± 0.29 nM
"CC[C@H](C)[C@@H]1NC(=O)[C@H](CC(=O)O)NC(=O)[C@H](Cc2ccc(O)cc2)NC(=O)[C@H](Cc2ccccc2)NC(=O)[C@H](CC(=O)O)NC(=O)[C@H](CCC(=O)O)NC(=O)[C@@H]2CSCc3cc(cc(c3)CSC[C@H](NC(C)=O)C(=O)N[C@@H](Cc3ccc(O)cc3)C(=O)N[C@@H](CC(N)=O)C(=O)N[C@@H](CCC(=O)O)C(=O)N[C@@H](Cc3c[nH]c4ccccc34)C(=O)NCC(=O)N2)CSC[C@@H](C(N)=O)NC1=O [17-69-44-N002, Ac-(17-69-07) Trp4] (Ac-CYNEWGCEDFYDIC-NH2; linker 1-7-14 via TBMB)",Kd,[1],0.75 ± 0.23 nM
"CC[C@H](C)[C@@H]1NC(=O)[C@H](CC(=O)O)NC(=O)[C@H](Cc2ccc(O)cc2)NC(=O)[C@H](Cc2ccccc2)NC(=O)[C@H](CC(=O)O)NC(=O)[C@H](CCC(=O)O)NC(=O)[C@@H]2CSCc3cc(cc(c3)CSC[C@H](NC(=O)[C@H](C)NC(=O)CN3CCN(CC(=O)O)CCN(CC(=O)O)CCN(CC(=O)O)CC3)C(=O)N[C@@H](Cc3ccc(O)cc3)C(=O)N[C@@H](CC(N)=O)C(=O)N[C@@H](CCC(=O)O)C(=O)N[C@@H](Cc3ccccc3)C(=O)NCC(=O)N2)CSC[C@@H](C(N)=O)NC1=O [17-69-07-N144, DOTA-A-(17-69-07)]","potency / activity toward MT1-MMP, in words",,retains full potency to MT1-MMP
same,Kd,"Table 15, DOTA-linked peptides",0.5 nM
"CC[C@H](C)[C@@H]1NC(=O)[C@H](CC(=O)O)NC(=O)[C@H](Cc2ccc(O)cc2)NC(=O)[C@H](Cc2ccccc2)NC(=O)[C@H](CC(=O)O)NC(=O)[C@H](CCC(=O)O)NC(=O)[C@@H]2CSCc3cc(cc(c3)CSC[C@@H](C(=O)N[C@@H](C)C(N)=O)NC1=O)CSC[C@H](NC(=O)[C@H](C)N)C(=O)N[C@@H](CCSC)C(=O)N[C@@H](CC(N)=O)C(=O)N[C@@H](CCC(N)=O)C(=O)N[C@@H](Cc1ccccc1)C(=O)NCC(=O)N2 [17-69-12-N003, A-(17-69-12)-A] (H-ACMNQFGCEDFYDICA-NH2; linker 2-8-15 via TBMB)",Kd,"Table 3, Competition, tracer A-(17-69-07)-A-Sar6-K(Fluorescein)",3.7 ± 2.52 nM
"CC(=O)N[C@H]1CSCc2cc3cc(c2)CSC[C@H](NC(=O)[C@@H](C)NC(=O)[C@H](Cc2cccc4ccccc24)NC(=O)[C@H](CCC(=O)O)NC(=O)[C@H](CC(N)=O)NC(=O)[C@@H](C)NC1=O)C(=O)N[C@@H](CCC(=O)O)C(=O)N[C@@H](CC(=O)O)C(=O)N[C@@H](Cc1ccccc1)C(=O)N[C@@H](Cc1ccc(Br)cc1)C(=O)N[C@@H](CC(=O)O)C(=O)N[C@@H](C(C)(C)C)C(=O)N[C@H](C(N)=O)CSC3 [17-69-07-N252, Ac-(17-69-07) D-Ala1 1Nal4 D-Ala5 4BrPhe9 tBuGly11] (Ac-C[dA]NE[1Nal][dA]CEDF[Phe(4-Br)]D[Tle]C-NH2; linker 1-7-14 via TBMB)","potency / activity toward MT1-MMP, in words",,potency which is superior to wildtype
same,Kd,"Table 10, multi-substitution",0.8 ± 0.39 nM
"CC[C@H](C)[C@@H]1NC(=O)[C@H](CC(=O)O)NC(=O)[C@H](Cc2ccc(O)cc2)NC(=O)[C@H](Cc2ccccc2)NC(=O)[C@H](CC(=O)O)NC(=O)[C@H](CCC(=O)O)NC(=O)[C@@H]2CSCc3cc(cc(c3)CSC[C@H](NC(C)=O)C(=O)N[C@@H](Cc3ccc(O)cc3)C(=O)N[C@@H](CC(N)=O)C(=O)N[C@@H](CCC(=O)O)C(=O)N[C@@H](CC3CCCCC3)C(=O)NCC(=O)N2)CSC[C@@H](C(N)=O)NC1=O [17-69-07-N139, Ac-(17-69-07) Cha4] (Ac-CYNE[Cha]GCEDFYDIC-NH2; linker 1-7-14 via TBMB)",Kd,[1],362 nM
"CC[C@H](C)[C@@H]1NC(=O)[C@H](CC(=O)O)NC(=O)[C@H](Cc2ccc(O)cc2)NC(=O)[C@H](Cc2ccccc2)NC(=O)[C@H](CC(=O)O)NC(=O)[C@H](CCC(=O)O)NC(=O)[C@@H]2CSCc3cc(cc(c3)CSC[C@H](NC(C)=O)C(=O)N[C@@H](Cc3ccc(O)cc3)C(=O)N[C@@H](CC(N)=O)C(=O)N[C@@H](CCC(=O)O)C(=O)N[C@@H](CCc3ccccc3)C(=O)NCC(=O)N2)CSC[C@@H](C(N)=O)NC1=O [17-69-07-N140, Ac-(17-69-07) HPhe4]",Kd,[1],43.3 nM
"CC[C@H](C)[C@@H]1NC(=O)[C@H](CC(=O)O)NC(=O)[C@H](Cc2ccc(O)cc2)NC(=O)[C@H](Cc2ccccc2)NC(=O)[C@H](CC(=O)O)NC(=O)[C@H](CCC(=O)O)NC(=O)[C@@H]2CSCc3cc(cc(c3)CSC[C@H](NC(C)=O)C(=O)N[C@@H](Cc3ccc(O)cc3)C(=O)N[C@@H](CC(N)=O)C(=O)N[C@@H](CCC(=O)O)C(=O)N[C@@H](Cc3ccc(O)cc3)C(=O)NCC(=O)N2)CSC[C@@H](C(N)=O)NC1=O [17-69-07-N057, Ac-(17-69-07) Tyr4] (Ac-CYNEYGCEDFYDIC-NH2; linker 1-7-14 via TBMB)",Kd,[1],1.78 ± 0.45 nM
"CC[C@H](C)[C@@H]1NC(=O)[C@H](CC(=O)O)NC(=O)[C@H](Cc2ccc(O)cc2)NC(=O)[C@H](Cc2ccccc2)NC(=O)[C@H](CC(=O)O)NC(=O)[C@H](CCC(=O)O)NC(=O)[C@@H]2CSCc3cc(cc(c3)CSC[C@H](NC(=O)[C@H](C)NC(=O)CN(C)C(=O)CN(C)C(=O)CN(C)C(=O)CN(C)C(=O)CN(C)C(=O)CN(C)C(=O)CN(C)C(=O)CN(C)C(=O)CN(C)C(=O)CN(C)C(=O)CNC(C)=O)C(=O)N[C@@H](Cc3ccc(O)cc3)C(=O)N[C@@H](CC(N)=O)C(=O)N[C@@H](CCC(=O)O)C(=O)N[C@@H](Cc3ccccc3)C(=O)NCC(=O)N2)CSC[C@@H](C(N)=O)NC1=O [17-69-07-N225, Ac-G-Sar10-A-(17-69-07)] (Ac-G[Sar][Sar][Sar][Sar][Sar][Sar][Sar][Sar][Sar][Sar]ACYNEFGCEDFYDIC-NH2; linker 13-19-26 via TBMB)",Kd,"Table 11, G-Sar10-A addition",0.95 ± 0.1 nM
"C[C@H](NC(=O)CN(C)C(=O)CN(C)C(=O)CN(C)C(=O)CN(C)C(=O)CN(C)C(=O)CN(C)C(=O)CN(C)C(=O)CN(C)C(=O)CN(C)C(=O)CN(C)C(=O)CN)C(=O)N[C@H]1CSCc2cc3cc(c2)CSC[C@H](NC(=O)[C@@H](C)NC(=O)[C@H](Cc2cccc4ccccc24)NC(=O)[C@H](CCC(=O)O)NC(=O)[C@H](CC(N)=O)NC(=O)[C@@H](C)NC1=O)C(=O)N[C@@H](CCC(=O)O)C(=O)N[C@@H](CC(=O)O)C(=O)N[C@@H](Cc1ccccc1)C(=O)N[C@@H](Cc1ccc(O)cc1)C(=O)N[C@@H](CC(=O)O)C(=O)N[C@@H](C(C)(C)C)C(=O)N[C@H](C(N)=O)CSC3 [17-69-07-N231, G-Sar10-A-(17-69-07) D-Ala1 1Nal4 D-Ala5 tBuGly11] (H-G[Sar][Sar][Sar][Sar][Sar][Sar][Sar][Sar][Sar][Sar]AC[dA]NE[1Nal][dA]CEDFYD[Tle]C-NH2; linker 13-19-26 via TBMB)",Kd,"Table 12, molecules selected for plasma stability assessment",1.07 ± 0.28 nM
"CC[C@H](C)[C@@H]1NC(=O)[C@H](CC(=O)O)NC(=O)[C@H](Cc2ccc(O)cc2)NC(=O)[C@H](Cc2ccccc2)NC(=O)[C@H](CC(=O)O)NC(=O)[C@H](CCC(=O)O)NC(=O)[C@@H]2CSCc3cc(cc(c3)CSC[C@H](NC(=O)[C@H](C)NC(=O)CN3CCN(CC(=O)O)CCN(CC(=O)O)CCN(CC(=O)O)CC3)C(=O)N[C@@H](Cc3ccc(O)cc3)C(=O)N[C@@H](CC(N)=O)C(=O)N[C@@H](CCC(=O)O)C(=O)N[C@@H](Cc3ccccc3)C(=O)NCC(=O)N2)CSC[C@@H](C(N)=O)NC1=O [17-69-07-N147, DOTA[Lu]-A-(17-69-07)]",Kd,"Table 15, DOTA-linked peptides",0.95 ± 0.5 nM
"CC[C@H](C)[C@@H]1NC(=O)[C@H](CC(=O)O)NC(=O)[C@H](Cc2ccc(O)cc2)NC(=O)[C@H](Cc2ccccc2)NC(=O)[C@H](CC(=O)O)NC(=O)[C@H](CCC(=O)O)NC(=O)[C@@H]2CSCc3cc(cc(c3)CSC[C@H](NC(C)=O)C(=O)N[C@@H](Cc3ccc(O)cc3)C(=O)N[C@@H](CC(N)=O)C(=O)N[C@@H](CCC(=O)O)C(=O)N[C@@H](c3ccccc3)C(=O)NCC(=O)N2)CSC[C@@H](C(N)=O)NC1=O [17-69-07-N071, Ac-(17-69-07) Phg4] (Ac-CYNE[Phg]GCEDFYDIC-NH2; linker 1-7-14 via TBMB)",Kd,[1],628 nM
"CC[C@@H](C)[C@H]1NC(=O)[C@@H](CC(=O)O)NC(=O)[C@@H](Cc2ccc(O)cc2)NC(=O)[C@@H](Cc2ccccc2)NC(=O)[C@@H](CC(=O)O)NC(=O)[C@@H](CCC(=O)O)NC(=O)[C@H]2CSCc3cc(cc(c3)CSC[C@@H](NC(=O)[C@@H](C)NC(=O)CN3CCN(CC(=O)O)CCN(CC(=O)O)CCN(CC(=O)O)CC3)C(=O)N[C@H](Cc3ccc(O)cc3)C(=O)N[C@H](CC(N)=O)C(=O)N[C@H](CCC(=O)O)C(=O)N[C@H](Cc3ccccc3)C(=O)NCC(=O)N2)CSC[C@H](C(N)=O)NC1=O [17-69-07-N246, DOTA-A-(17-69-07) All D Amino Acids]","potency / activity toward MT1-MMP, in words",,lacks any activity toward MT1-MMP
same,Kd,"Table 15, DOTA-linked peptides",> 5000 nM
